Assay [1] deals with Calcium/calmodulin-dependent protein kinase type II subunit beta (Homo sapiens) (UniProt Q13554).
In assay [2] the target is Cyclin-dependent kinase 6 (Homo sapiens) (UniProt Q00534).
Assay [3] concerns the target Casein kinase I isoform gamma-2 (Homo sapiens) (UniProt P78368).
The target of assay [4] is Death-associated protein kinase 3 (Homo sapiens) (UniProt O43293).
For assay [5], the target named is Glycogen synthase kinase-3 beta (Homo sapiens, UniProt P49841).
The target in assay [6] is Tyrosine-protein kinase JAK1 (Homo sapiens) (UniProt P23458).
Chain of Tyrosine-protein kinase JAK1 (Homo sapiens) (P23458 whole entry): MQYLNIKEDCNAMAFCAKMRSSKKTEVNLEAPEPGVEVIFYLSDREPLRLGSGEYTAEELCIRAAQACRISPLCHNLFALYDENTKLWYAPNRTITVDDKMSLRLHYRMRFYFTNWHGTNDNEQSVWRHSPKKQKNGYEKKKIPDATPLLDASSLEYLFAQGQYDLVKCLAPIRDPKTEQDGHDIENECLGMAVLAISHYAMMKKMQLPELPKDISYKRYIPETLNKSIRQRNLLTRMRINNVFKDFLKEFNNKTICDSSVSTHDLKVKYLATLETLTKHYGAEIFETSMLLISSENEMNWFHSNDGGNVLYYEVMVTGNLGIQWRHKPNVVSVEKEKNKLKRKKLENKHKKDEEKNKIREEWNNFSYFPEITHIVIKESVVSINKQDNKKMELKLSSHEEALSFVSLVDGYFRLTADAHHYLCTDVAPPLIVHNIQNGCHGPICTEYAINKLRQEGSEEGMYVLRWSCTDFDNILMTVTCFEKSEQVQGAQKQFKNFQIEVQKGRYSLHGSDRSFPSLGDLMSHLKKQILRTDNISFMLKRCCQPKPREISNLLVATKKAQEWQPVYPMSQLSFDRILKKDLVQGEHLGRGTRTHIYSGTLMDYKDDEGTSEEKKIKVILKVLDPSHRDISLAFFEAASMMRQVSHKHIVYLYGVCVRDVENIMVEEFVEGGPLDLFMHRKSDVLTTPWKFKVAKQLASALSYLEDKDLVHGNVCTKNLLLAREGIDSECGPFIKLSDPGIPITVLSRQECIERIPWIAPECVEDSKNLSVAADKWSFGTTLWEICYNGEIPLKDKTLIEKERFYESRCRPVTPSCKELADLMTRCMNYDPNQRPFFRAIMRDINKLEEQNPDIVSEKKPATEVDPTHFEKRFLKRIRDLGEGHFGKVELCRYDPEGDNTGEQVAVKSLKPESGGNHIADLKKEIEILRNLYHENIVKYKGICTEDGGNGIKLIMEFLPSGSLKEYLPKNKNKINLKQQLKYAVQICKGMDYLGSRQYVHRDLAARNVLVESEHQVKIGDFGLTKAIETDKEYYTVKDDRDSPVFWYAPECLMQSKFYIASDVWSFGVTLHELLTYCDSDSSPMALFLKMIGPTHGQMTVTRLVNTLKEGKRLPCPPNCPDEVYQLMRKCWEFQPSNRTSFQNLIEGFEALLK
Assay [7] has as its target T1, Dual specificity mitogen-activated protein kinase kinase 6 (Homo sapiens) (UniProt P52564).
T1 sequence (whole entry): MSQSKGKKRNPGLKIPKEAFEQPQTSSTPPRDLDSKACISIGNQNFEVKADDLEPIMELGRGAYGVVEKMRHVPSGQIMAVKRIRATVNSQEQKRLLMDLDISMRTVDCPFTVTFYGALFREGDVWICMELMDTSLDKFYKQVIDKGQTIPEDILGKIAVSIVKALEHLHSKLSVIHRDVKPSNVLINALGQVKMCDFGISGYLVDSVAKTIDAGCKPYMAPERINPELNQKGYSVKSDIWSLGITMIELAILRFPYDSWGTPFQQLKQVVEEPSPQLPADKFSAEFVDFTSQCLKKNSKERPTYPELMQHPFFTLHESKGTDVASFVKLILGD

Assay [8] has as its target T2, Mitogen-activated protein kinase kinase kinase 5 (Homo sapiens) (UniProt Q99683).
T2 sequence (whole entry): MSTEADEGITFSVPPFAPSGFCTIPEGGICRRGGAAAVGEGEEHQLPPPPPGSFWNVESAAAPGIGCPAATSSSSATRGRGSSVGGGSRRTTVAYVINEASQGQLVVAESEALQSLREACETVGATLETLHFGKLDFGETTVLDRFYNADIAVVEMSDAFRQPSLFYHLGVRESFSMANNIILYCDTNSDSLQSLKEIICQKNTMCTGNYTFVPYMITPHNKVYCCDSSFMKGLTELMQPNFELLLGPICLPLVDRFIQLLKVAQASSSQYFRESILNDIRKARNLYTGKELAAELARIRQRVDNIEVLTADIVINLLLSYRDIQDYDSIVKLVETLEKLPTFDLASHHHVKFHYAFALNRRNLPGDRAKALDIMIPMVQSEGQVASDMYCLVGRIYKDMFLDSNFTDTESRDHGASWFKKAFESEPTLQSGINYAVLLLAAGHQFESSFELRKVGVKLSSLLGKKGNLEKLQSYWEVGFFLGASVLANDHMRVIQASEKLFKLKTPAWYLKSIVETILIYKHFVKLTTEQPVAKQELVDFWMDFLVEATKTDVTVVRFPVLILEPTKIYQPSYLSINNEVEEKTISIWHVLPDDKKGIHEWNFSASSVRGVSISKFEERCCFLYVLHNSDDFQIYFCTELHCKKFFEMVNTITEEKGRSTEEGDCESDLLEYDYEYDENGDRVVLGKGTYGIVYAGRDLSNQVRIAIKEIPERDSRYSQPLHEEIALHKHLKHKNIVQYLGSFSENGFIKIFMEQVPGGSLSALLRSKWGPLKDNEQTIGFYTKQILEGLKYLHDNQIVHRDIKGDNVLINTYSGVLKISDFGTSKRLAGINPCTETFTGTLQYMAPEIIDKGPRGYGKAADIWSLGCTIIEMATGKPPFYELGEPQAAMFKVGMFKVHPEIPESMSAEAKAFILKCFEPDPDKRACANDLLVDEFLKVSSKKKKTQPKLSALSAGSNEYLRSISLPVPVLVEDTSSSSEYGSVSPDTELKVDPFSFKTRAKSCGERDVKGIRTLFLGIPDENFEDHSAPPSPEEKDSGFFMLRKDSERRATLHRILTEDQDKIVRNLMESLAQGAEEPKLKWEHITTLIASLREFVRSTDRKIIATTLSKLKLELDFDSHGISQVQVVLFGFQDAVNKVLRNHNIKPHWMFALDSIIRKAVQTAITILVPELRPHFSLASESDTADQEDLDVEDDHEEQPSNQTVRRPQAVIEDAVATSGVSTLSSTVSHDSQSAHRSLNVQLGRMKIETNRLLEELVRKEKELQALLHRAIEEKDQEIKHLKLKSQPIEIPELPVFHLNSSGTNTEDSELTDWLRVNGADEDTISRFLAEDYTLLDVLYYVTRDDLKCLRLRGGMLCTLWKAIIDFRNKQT

Assay [9] deals with Mitogen-activated protein kinase 6 (Homo sapiens) (UniProt Q16659).
Chain of Mitogen-activated protein kinase 6 (Homo sapiens) (Q16659 whole entry): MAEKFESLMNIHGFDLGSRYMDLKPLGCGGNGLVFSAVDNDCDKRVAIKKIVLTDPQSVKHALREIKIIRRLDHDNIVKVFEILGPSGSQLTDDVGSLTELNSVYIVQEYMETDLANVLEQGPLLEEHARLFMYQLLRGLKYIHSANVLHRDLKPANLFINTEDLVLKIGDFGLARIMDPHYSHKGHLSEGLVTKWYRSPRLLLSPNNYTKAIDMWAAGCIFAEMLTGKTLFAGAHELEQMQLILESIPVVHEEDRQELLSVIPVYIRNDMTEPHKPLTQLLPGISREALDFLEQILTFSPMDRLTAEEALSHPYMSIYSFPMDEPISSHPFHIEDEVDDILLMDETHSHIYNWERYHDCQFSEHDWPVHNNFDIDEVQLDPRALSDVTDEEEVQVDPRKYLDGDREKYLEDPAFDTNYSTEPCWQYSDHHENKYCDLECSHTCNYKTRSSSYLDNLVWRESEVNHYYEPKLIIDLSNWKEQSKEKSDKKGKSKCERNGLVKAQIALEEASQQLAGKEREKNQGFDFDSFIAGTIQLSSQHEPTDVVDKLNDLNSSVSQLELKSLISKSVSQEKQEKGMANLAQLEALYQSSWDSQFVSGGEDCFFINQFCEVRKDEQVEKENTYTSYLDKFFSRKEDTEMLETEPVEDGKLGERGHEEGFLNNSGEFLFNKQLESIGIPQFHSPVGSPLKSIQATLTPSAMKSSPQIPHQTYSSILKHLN
The target in assay [10] is Serine/threonine-protein kinase 26 (Homo sapiens) (UniProt Q9P289).
Assay [11] has as its target Serine/threonine-protein kinase PAK 4 (Homo sapiens) (UniProt O96013).
Assay [12] deals with Serine/threonine-protein kinase pim-3 (Homo sapiens) (UniProt Q86V86).
The target of assay [13] is cAMP-dependent protein kinase catalytic subunit alpha (Homo sapiens) (UniProt P17612).
The target of assay [14] is Ribosomal protein S6 kinase alpha-3 (Homo sapiens) (UniProt P51812).
Chain of Ribosomal protein S6 kinase alpha-3 (Homo sapiens) (P51812 whole entry): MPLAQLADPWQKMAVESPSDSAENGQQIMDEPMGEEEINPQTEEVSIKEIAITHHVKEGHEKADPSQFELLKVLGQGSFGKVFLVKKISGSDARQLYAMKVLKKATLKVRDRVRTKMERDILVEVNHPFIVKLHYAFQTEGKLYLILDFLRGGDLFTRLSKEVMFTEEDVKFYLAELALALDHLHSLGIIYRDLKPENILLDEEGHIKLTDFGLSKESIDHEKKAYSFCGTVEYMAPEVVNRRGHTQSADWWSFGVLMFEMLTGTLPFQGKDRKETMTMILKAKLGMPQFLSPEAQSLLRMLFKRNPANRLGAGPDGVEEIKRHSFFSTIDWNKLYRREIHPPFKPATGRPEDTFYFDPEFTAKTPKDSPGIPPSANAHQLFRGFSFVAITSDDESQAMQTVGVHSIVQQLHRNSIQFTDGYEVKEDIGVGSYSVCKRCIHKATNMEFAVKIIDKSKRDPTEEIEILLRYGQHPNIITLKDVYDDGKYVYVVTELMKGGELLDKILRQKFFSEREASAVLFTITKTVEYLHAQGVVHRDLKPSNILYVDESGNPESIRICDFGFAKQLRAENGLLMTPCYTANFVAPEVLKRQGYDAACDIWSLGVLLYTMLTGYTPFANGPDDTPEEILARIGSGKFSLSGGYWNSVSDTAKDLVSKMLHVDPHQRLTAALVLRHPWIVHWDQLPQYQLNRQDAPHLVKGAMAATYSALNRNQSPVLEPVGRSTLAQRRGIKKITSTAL
In assay [15] the target is T3, Serine/threonine-protein kinase VRK1 (Homo sapiens) (UniProt Q99986).
T3 sequence (whole entry): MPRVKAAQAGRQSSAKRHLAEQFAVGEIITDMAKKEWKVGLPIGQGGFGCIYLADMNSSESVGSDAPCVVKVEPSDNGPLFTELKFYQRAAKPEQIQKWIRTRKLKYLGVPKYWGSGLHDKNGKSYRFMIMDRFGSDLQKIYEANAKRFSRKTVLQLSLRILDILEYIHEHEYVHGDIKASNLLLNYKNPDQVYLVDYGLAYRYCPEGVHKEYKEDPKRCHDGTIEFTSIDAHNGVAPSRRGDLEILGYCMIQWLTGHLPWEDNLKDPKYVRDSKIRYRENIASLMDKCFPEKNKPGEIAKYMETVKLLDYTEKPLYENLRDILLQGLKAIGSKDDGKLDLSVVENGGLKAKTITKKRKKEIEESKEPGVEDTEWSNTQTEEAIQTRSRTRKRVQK

SMILES strings stand for the structures.

Chain of Calcium/calmodulin-dependent protein kinase type II subunit beta (Homo sapiens) (Q13554 whole entry): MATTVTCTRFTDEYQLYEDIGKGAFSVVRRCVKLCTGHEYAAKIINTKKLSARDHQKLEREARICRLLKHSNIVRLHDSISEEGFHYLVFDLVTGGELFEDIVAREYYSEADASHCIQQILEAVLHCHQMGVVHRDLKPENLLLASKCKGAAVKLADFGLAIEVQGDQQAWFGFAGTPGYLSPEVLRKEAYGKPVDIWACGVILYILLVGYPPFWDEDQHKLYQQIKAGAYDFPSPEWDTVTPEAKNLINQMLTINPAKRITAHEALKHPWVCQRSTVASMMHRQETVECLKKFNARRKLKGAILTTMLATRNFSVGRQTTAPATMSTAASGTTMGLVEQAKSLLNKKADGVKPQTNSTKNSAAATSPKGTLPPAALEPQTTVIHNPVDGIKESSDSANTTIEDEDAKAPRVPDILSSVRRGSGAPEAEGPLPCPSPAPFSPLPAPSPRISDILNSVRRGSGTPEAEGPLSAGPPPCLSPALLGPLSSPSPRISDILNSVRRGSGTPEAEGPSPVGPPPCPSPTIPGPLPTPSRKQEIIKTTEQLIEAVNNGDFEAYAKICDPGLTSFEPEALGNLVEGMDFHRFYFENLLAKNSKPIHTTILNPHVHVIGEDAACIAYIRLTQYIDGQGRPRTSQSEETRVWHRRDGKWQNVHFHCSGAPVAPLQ
Chain of Casein kinase I isoform gamma-2 (Homo sapiens) (P78368 whole entry, looked up, canonical isoform): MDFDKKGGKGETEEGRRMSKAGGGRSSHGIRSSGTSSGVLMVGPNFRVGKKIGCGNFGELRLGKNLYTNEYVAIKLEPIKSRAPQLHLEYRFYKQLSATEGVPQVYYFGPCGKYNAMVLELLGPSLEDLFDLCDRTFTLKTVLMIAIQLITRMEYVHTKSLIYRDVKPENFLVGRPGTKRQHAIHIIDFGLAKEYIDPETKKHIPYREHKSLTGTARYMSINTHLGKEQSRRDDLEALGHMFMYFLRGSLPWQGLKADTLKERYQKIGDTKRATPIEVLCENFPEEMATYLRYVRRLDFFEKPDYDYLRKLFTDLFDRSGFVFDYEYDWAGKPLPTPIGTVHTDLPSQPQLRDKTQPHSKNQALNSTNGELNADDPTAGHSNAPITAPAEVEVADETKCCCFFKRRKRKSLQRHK
Chain of Glycogen synthase kinase-3 beta (P49841 whole entry, looked up): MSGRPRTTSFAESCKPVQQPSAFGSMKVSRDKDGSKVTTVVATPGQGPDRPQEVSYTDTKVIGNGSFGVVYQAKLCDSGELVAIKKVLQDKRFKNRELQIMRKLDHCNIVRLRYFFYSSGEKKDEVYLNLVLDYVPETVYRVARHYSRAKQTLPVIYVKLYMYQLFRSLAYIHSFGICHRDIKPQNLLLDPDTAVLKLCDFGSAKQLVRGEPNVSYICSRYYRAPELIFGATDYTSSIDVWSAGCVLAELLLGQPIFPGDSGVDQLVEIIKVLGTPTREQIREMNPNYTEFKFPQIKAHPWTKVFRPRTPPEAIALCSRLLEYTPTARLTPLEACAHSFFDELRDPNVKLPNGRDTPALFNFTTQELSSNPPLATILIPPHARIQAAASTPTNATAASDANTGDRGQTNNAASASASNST
Chain of Cyclin-dependent kinase 6 (Homo sapiens) (Q00534 whole entry, canonical isoform): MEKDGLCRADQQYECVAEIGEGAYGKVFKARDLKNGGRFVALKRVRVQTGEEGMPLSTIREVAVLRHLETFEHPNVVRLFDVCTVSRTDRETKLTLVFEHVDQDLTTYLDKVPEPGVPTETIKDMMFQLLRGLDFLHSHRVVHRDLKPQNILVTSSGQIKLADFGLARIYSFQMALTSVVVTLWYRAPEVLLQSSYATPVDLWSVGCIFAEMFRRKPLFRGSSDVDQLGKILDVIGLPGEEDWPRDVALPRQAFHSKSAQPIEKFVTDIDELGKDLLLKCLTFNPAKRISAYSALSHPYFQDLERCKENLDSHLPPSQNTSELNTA

As for `CCCCc1c(-c2ccc(O)cc2)[nH]c2nccnc12` [ALOISINE A], the ΔTm in [1] came out at 0.5 °C; in assay [2], 1.3 °C; in assay [3], 2.2 °C; in assay [4] it was 2.3 °C; in [5] it was 8.3 °C; in [6], 0.5 °C. Further, the shift in melting temperature (ΔTm) in [7] turned out to be 0.7 °C; in [8], 0.4 °C; in assay [9] it was 3 °C; in assay [10], 1.1 °C; in assay [11], 2.6 °C; in assay [12], 7.7 °C. Besides, the ΔTm in [13] was 3.8 °C; in assay [14], 1.9 °C; in assay [15], -0.2 °C.

In the case of `Cn1cnc2c(NCc3ccccc3)nc(NCCO)nc21` [OLOMOUCINE], the ΔTm is 0.2 °C in [1]; 0 °C in [2]; 0.5 °C in [3]; -0.1 °C in assay [4]; 0.1 °C in assay [5]; 0 °C in assay [6]. Further, the ΔTm in assay [7] is 0 °C; in [8] it was 0.1 °C; in assay [9], 0.2 °C; in assay [10] it was 0.2 °C; in assay [11] it was 0.4 °C; in [12] it was -0.1 °C. Besides, the results for the ΔTm in [13], in assay [14] and in [15] were -0.1 °C, -0.2 °C and 0.4 °C, respectively.

For the compound `CCN(CC)CCNC(=O)c1c(C)[nH]c(/C=C2\C(=O)Nc3ccc(Cl)cc32)c1C` [SU-11652], the thermal shift (ΔTm) is 2.8 °C in assay [1]; 2 °C in assay [2]; 4 °C in [3]; 5.9 °C in assay [4]; 3.8 °C in assay [5]; 9.7 °C in assay [6]. For the same compound, the ΔTm was 2.4 °C in assay [7]; 6.3 °C in assay [8]; 0.8 °C in [9]; 3.8 °C in [10]; 6.4 °C in assay [11]; 4.7 °C in assay [12]. The ΔTm stood at 2 °C in assay [13], 6.8 °C in [14] and 0.6 °C in assay [15].

For the compound `COc1cc(OC)c(/C=C2\C(=O)Nc3ccccc32)c(OC)c1`, the ΔTm in [1] was 0.1 °C; in [2], 0.3 °C; in assay [3], 0.7 °C; in assay [4], -0.3 °C; in assay [5], 0.4 °C; in assay [6], 0.5 °C. The ΔTm was 0 °C in assay [7]; 0 °C in assay [8]; -0.2 °C in assay [9]; 0 °C in assay [10]; 0.1 °C in assay [11]; 1 °C in assay [12]. Moreover, the results for the shift in melting temperature (ΔTm) in assay [13], in assay [14] and in assay [15] were 0.4 °C, 0.1 °C and 0.6 °C, respectively.

As to `C[S+]([O-])c1ccc(-c2nc(-c3ccc(F)cc3)c(-c3ccncc3)[nH]2)cc1` (stereo not given) [SB-203580], the ΔTm in assay [1] is 0 °C; in [2], -0.1 °C; in assay [3] it was 0.7 °C; in [4], -0.4 °C; in assay [5], 3.5 °C; in assay [6] it was 2.3 °C. Further, the ΔTm in [7] was -0.1 °C; in assay [8], 0.3 °C; in [9], 0 °C; in [10], -0.5 °C; in assay [11], 0.1 °C; in assay [12] it was 0 °C. Further, the ΔTm is 0 °C in assay [13], -0.2 °C in [14] and -0.1 °C in [15].

Consider `N#C/C(=C(/N)Sc1ccc(N)cc1)c1ccccc1C(F)(F)F`, for which the ΔTm in assay [1] is 0.5 °C; in assay [2] it was 0.3 °C; in assay [3], 0.3 °C; in assay [4], -0.2 °C; in assay [5] it was -0.1 °C; in [6], -5 °C. Moreover, the ΔTm in assay [7] was 0.2 °C; in assay [8], -0.1 °C; in assay [9], 0.4 °C; in assay [10], 1.1 °C; in assay [11], 1.3 °C; in [12] it was 0.8 °C. The ΔTm is 0.7 °C in assay [13], -0.1 °C in assay [14] and 0.4 °C in assay [15].

`O=C1NC(=O)c2c1c1c3ccccc3[nH]c1n1cncc21` [ISOGRANULATIMIDE]: the shift in melting temperature (ΔTm) in assay [1] worked out at 1.2 °C; in assay [2], 2.7 °C; in assay [3], 3.6 °C; in [4], 5.3 °C; in [5] it was 8.8 °C; in assay [6] it was 7.5 °C. The ΔTm in [7] turned out to be 14.6 °C; in assay [8], 2.6 °C; in [9] it was 1.2 °C; in [10] it was 2.5 °C; in assay [11], 3.8 °C; in assay [12], 8.8 °C. Also, the figures for the thermal shift (ΔTm) in assay [13], in assay [14] and in assay [15] were 5.9 °C, 2.5 °C and 1.7 °C, respectively.

Take `COc1cc(O)c2c(c1)oc(=O)c1c3cc(O)c(O)cc3oc21` [WEDELOLACTONE]: the ΔTm in [1] is 0.7 °C; in assay [2], 0.6 °C; in assay [3] it was 2.7 °C; in [4] it was 0 °C; in assay [5], -0.4 °C; in assay [6] it was 2.2 °C. The ΔTm in assay [7] was determined as 0.2 °C; in assay [8] it was 0.8 °C; in [9], 1.5 °C; in assay [10] it was 1.4 °C; in assay [11] it was 1.6 °C; in assay [12], 5.9 °C. The ΔTm amounted to 2.3 °C in assay [13], 1 °C in assay [14] and 0 °C in [15].

Take `O=C1Nc2ccccc2/C1=C/c1cnc[nH]1`: the ΔTm in assay [1] was determined as 0.8 °C; in [2], 4.4 °C; in assay [3] it was 1.6 °C; in [4], 1.6 °C; in assay [5] it was 7.1 °C; in [6], 6.9 °C. Also, the ΔTm in assay [7] was determined as 4.7 °C; in assay [8], 5 °C; in assay [9], 0.5 °C; in [10], 4.3 °C; in assay [11], 2.2 °C; in assay [12] it was 3.3 °C. The ΔTm in [13] amounted to 1.6 °C; in assay [14], 1 °C; in [15] it was 0.5 °C.

Source of the values: ChEMBL document CHEMBL1145498, “A systematic interaction map of validated kinase inhibitors with Ser/Thr kinases” (Proc Natl Acad Sci U S A, 2007).
